Assay results taken from patent US6984649B1, “Pyridine derivatives” (Bayer Aktiengesellschaft, priority 2000, dated 2006).
Structures can show the parent of a compound that is named as a salt.

biological target: T1, human IKK-β (Homo sapiens, UniProt O14920); assay: IKK-β kinase inhibitory assay; format: biochemical; details: compounds as yielded by solid phase synthesis, purity about 40 to 90%, read-out: In vitro activity grade (In vitro IC50)
T1 construct: A cDNA fragment encoding human IKK-β open reading frame was generated by PCR; His tag (from pcDNA3.1/His C); made in house; host or cells: Sf21 insect cells (baculovirus); substrate made in E. coli
T1 sequence (O14920 1-756): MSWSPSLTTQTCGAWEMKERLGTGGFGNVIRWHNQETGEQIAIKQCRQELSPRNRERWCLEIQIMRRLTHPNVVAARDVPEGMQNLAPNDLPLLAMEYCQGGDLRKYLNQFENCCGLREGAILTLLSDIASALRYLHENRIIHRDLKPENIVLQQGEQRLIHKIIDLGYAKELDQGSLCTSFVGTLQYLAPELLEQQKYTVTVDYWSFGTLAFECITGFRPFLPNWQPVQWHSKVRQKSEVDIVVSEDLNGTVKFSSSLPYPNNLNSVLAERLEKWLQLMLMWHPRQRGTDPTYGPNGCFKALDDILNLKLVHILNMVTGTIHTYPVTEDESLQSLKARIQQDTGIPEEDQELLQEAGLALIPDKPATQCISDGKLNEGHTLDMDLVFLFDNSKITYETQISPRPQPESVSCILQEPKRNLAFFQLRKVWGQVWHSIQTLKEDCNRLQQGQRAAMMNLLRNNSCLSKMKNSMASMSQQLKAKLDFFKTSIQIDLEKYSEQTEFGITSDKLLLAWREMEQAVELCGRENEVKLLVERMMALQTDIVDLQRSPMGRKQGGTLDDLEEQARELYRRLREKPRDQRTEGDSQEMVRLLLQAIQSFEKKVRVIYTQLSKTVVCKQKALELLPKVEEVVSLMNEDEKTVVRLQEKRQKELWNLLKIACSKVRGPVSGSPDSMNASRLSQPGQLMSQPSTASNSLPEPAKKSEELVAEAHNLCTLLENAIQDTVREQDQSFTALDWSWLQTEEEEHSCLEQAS
Source text: [IKK-β Kinase Inhibitory Assay]
(1) Preparation of IKK-β Kinase Protein.
• A cDNA fragment encoding human IKK-β open reading frame was generated by PCR with the use of a pair of primers designed from the published sequence (Woronicz J D et al. (1997) Science 278, 866-869). A template was obtained from Quickclone cDNA (Clontech) using Elongase™ Amplification kit (Life Technologies). The DNA fragments generated by PCR were gel-purified and subcloned into pBluescript. The cDNA fragment cloned in pBluescript was inserted into pcDNA3.1/His C KpnI/NotI, and transferred into pVL1393 SmaI/XbaI (Pharmingen) to construct a baculovirus transfer vector. Then the vector, together with the linearized baculovirus (BaculoGold™, Pharmingen) was used to transfect Sf21 cells (Invitrogen, San Diego, Calif.). Generated recombinant baculovirus was cloned and amplified in Sf21 cells, grown in TNM-FH insect cell medium (Life Technologies, Inc.) supplemented with 10% FCS, […] Gentamycin, 0.1% Pluronic F-68 (Life Technologies, Inc.) as suspension culture (200 ml in 1 L Erlenmeyer flask; 27° C.; 130 rpm). Sf21 cells were infected with this amplified virus with a multiplicity of infection of 5 following standard protocols (Crossen R, Gruenwald S (1997) Baculovirus Expression Vector System Instruction Manual, Pharmingen Corporation) and harvested 48 hrs later. The cells were lysed to obtain the produced chimeric protein of IKK-β kinase fused by histidine (His-tagged IKK-beta). (2) The Preparation of Purified GST-IκBα Fusion Proteins • An expression vector containing the nucleotide sequence encoding fusion protein of GST with amino acid residues 1 to 54 of IκBα under the control of an IPTG-inducible promoter was constructed. The expression vector was introduced in E. coli and the transformant was cultured and lysed to obtain a GST-IκBα fusion protein. Then the resulting GST-IκBα fusion protein was purified and biotinated for kinase assay. (3) The Measurement of IKK-β Kinase Activity • The 96-well format kinase assay of IKK-β were performed to test the inhibitory activity of the compounds of the present invention. First, 5 μl of a test compound was put in the presence of 2.5% dimethyl sulfoxide (DMSO) in each well in a U-bottomed 96-well plate (Falcon). For control wells of background (BG) and total phosphorylation (TP), 5 μl of 2.5% DMSO was put. Recombinant IKK-β (final 0.6 μg/ml) and bio-GST-IκBα (1-54) (final 0.2 μM) were diluted in 25 μl of 2×kinase buffer β (40 mM Tris-HCl, pH 7.6, 40 mM MgCl2, 40 mM β-glycerophosphate, 40 mM p-nitrophenylphosphate, 2 mM EDTA, 40 mM creatine phosphate, 2 mM DTT, 2 mM Na3VO4, 0.2 mg/ml BSA and 0.8 mM phenylmethylsulfonyl fluoride) and transferred to the 96-well plate. Bio-GST-IκBα (1-54) in 25 μl of 2×kinase buffer β without IKK-β was transferred to BG wells. Then 20 μl of 12.5 μM ATP, 62.5 μCi/ml [γ-^33P] ATP (Amersham Pharmacia Biotech) was added and the resulting mixture was incubated for 2 hrs at room temperature. The kinase reactions were terminated by the addition of 150 μl of termination buffer (100 mM EDTA, 1 mg/ml BSA, 0.2 mg NaN3). One hundred and fifty μl of the sample were transferred to a streptavidin-coated, white MTP (Steffens Biotechniche Analysen GmbH #08114E14.FWD) to capture the biotinylated substrates. After 1 hr of incubation, non-bound radioactivity was eliminated by washing the wells five times with 300 μl of washing buffer including 0.9% NaCl and 0.1% (w/v) Tween-20 with the use of a MW-96 plate washer (BioTec). The bound radioactivity was determined after the addition of 170 μl MicroScint-PS scintillation cocktail (Packard) using a TopCount scintillation counter. [Syk Tyrosine Kinase Inhibitory Assay for Selectivity] (1) Preparation of Syk Protein • A cDNA fragment encoding human Syk openreading frame was cloned from total RNA of human Burkitt's lymphoma B cell lines, Raji (American Type Culture Collection), with the use of RT-PCR method.

Compound | IC50
CNC(=O)c1c(C2CCCNC2)cc(-c2ccccc2O)nc1N (centres unmarked) [Example 8-2, 2-amino-6-(2-hydroxyphenyl)-N-methyl-4-(3-piperidinyl)nicotinamide hydrochloride] | 500 to 2000 nM
CNC(=O)c1c(C2CCCNC2)cc(-c2c(O)cccc2OCC2CC2)nc1N (centres unmarked) [Example 8-3, 2-amino-6-[2-(cyclopropylmethoxy)-6-hydroxyphenyl]-N-methyl-4-(3-piperidinyl)nicotinamide hydrochloride] | < 500 nM
CC(C)(C)OC(=O)c1c(C2CCCNC2)cc(-c2ccccc2O)nc1N (centres unmarked) [Example 9-1, tert-butyl 2-amino-6-(2-hydroxyphenyl)-4-(3-piperidinyl)nicotinate hydrochloride] | < 500 nM
Nc1nc(-c2ccccc2O)cc(C2CCCNC2)c1C(=O)O (centres unmarked) [Example 9-2, 2-amino-6-(2-hydroxyphenyl)-4-(3-piperidinyl)nicotinic acid hydrochloride] | < 500 nM
Nc1nc(-c2c(O)cccc2OCC2CC2)cc(C2CCCNC2)c1C(=O)O (centres unmarked) [Example 9-3, 2-amino-6-[2-(cyclopropylmethoxy)-6-hydroxyphenyl]-4-(3-piperidinyl)nicotinic acid hydrochloride] | < 500 nM
Cn1c(=O)[nH]c2nc(-c3ccccc3O)cc(C3CCCNC3)c2c1=O (centres unmarked) [Example 10-1, 7-(2-hydroxy-phenyl)-3-methyl-5-piperidin-3-yl-1H-pyrido[2,3-d]pyrimidine-2,4-dione hydrochloride] | < 500 nM
Nc1nc(-c2ccccc2O)cc(C2CCCNC2)c1CO (centres unmarked) [Example 11-1, 2-[6-amino-5-(hydroxymethyl)-4-(3-piperidinyl)-2-pyridinyl]phenol hydrochloride] | < 500 nM
Nc1nc(-c2c(O)cccc2F)cc(C2CCCNC2)c1CO (centres unmarked) [Example 11-2, 2-[6-amino-5-(hydroxymethyl)-4-(3-piperidinyl)-2-pyridinyl]-3-fluorophenol hydrochloride] | < 500 nM
Nc1nc(-c2ncccc2O)cc(C2CCCNC2)c1CO (centres unmarked) [Example 11-3, 6′-amino-5′-(hydroxymethyl)-4′-3-piperidinyl)-2,2′-bipyridin-3-ol hydrochloride] | < 500 nM
Nc1nc(-c2ccccc2O)cc(C2=CCCNC2)c1CO [Example 11-4, 2-[6′-amino-5′-(hydroxymethyl)-1,2,5,6-tetrahydro-3,4′-bipyridin-2′-yl]phenol hydrochloride] | < 500 nM
Nc1nc(-c2c(O)cccc2OCC2CC2)cc(C2CCCNC2)c1CO (centres unmarked) [Example 12-1, 2-[6-amino-5-(hydroxymethyl)-4-(3-piperidinyl)-2-pyridinyl]-3-(cyclopropylmethoxy)phenol hydrochloride] | < 500 nM
COCc1c(C2CCCNC2)cc(-c2ccccc2O)nc1N (centres unmarked) [Example 13-1, 2-[6-amino-5-(methoxymethyl)-4-(3-piperidinyl)-2-pyridinyl]phenol hydrochloride] | < 500 nM
CC(O)c1c(C2CCCNC2)cc(-c2ccccc2O)nc1N (centres unmarked) [Example 15-1, 2-[6-amino-5-(1-hydroxyethyl)-4-(3-piperidinyl)-2-pyridinyl]phenol hydrochloride] | < 500 nM
Nc1nc(-c2ccccc2O)cc(C2CCCNC2)c1C(O)c1ccccc1 (centres unmarked) [Example 15-2, 2-[6-amino-5-[hydroxy(phenyl)methyl]-4-(3-piperidinyl)-2-pyridinyl]phenol hydrochloride] | < 500 nM
CC(=O)c1c(C2CCCNC2)cc(-c2ccccc2O)nc1N (centres unmarked) [Example 15-3, 1-[2-amino-6-(2-hydroxyphenyl)4-(3-piperidinyl)-3-pyridinyl]ethanone hydrochloride] | < 500 nM
Oc1ccccc1-c1cc(C2CCCNC2)c2cn[nH]c2n1 (centres unmarked) [Example 16-1, 2-(4-Piperidin-3-yl-1H-pyrazolo[3,4-b]pyridin-6-yl)-phenol hydrochloride] | 500 to 2000 nM
Oc1cccc(OCC2CC2)c1-c1cc(C2CCCNC2)c2c(n1)NCOC2 (centres unmarked) [Example 17-1, 3-(cyclopropylmethoxy)-2-[5-(3-piperidinyl)-1,4-dihydro-2H-pyrido[2,3-d][1,3]oxazin-7-yl]-phenol hydrochloride] | < 500 nM
